Experimental findings from PMC6934184, “Selective DNA-PKcs inhibition extends the therapeutic index of localized radiotherapy and chemotherapy” (The Journal of Clinical Investigation, 2019) are described below.

The target in this experiment is T1, LRRK2 (Homo sapiens, UniProt Q5S007).
T1 construct: purchased Thermo Fisher Scientific (Life Technologies) SelectScreen
The experiment in a line: SelectScreen Adapta. The class given is biochemical. In a few lines:
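SelectScreen broad panel; activity (Z'LYTE, Adapta) plus binding formats. ATP: Km app for CSF1R Z'LYTE; 10 for CAMK1 Adapta. Readout = % per kinase.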

T1 sequence (Q5S007 whole entry): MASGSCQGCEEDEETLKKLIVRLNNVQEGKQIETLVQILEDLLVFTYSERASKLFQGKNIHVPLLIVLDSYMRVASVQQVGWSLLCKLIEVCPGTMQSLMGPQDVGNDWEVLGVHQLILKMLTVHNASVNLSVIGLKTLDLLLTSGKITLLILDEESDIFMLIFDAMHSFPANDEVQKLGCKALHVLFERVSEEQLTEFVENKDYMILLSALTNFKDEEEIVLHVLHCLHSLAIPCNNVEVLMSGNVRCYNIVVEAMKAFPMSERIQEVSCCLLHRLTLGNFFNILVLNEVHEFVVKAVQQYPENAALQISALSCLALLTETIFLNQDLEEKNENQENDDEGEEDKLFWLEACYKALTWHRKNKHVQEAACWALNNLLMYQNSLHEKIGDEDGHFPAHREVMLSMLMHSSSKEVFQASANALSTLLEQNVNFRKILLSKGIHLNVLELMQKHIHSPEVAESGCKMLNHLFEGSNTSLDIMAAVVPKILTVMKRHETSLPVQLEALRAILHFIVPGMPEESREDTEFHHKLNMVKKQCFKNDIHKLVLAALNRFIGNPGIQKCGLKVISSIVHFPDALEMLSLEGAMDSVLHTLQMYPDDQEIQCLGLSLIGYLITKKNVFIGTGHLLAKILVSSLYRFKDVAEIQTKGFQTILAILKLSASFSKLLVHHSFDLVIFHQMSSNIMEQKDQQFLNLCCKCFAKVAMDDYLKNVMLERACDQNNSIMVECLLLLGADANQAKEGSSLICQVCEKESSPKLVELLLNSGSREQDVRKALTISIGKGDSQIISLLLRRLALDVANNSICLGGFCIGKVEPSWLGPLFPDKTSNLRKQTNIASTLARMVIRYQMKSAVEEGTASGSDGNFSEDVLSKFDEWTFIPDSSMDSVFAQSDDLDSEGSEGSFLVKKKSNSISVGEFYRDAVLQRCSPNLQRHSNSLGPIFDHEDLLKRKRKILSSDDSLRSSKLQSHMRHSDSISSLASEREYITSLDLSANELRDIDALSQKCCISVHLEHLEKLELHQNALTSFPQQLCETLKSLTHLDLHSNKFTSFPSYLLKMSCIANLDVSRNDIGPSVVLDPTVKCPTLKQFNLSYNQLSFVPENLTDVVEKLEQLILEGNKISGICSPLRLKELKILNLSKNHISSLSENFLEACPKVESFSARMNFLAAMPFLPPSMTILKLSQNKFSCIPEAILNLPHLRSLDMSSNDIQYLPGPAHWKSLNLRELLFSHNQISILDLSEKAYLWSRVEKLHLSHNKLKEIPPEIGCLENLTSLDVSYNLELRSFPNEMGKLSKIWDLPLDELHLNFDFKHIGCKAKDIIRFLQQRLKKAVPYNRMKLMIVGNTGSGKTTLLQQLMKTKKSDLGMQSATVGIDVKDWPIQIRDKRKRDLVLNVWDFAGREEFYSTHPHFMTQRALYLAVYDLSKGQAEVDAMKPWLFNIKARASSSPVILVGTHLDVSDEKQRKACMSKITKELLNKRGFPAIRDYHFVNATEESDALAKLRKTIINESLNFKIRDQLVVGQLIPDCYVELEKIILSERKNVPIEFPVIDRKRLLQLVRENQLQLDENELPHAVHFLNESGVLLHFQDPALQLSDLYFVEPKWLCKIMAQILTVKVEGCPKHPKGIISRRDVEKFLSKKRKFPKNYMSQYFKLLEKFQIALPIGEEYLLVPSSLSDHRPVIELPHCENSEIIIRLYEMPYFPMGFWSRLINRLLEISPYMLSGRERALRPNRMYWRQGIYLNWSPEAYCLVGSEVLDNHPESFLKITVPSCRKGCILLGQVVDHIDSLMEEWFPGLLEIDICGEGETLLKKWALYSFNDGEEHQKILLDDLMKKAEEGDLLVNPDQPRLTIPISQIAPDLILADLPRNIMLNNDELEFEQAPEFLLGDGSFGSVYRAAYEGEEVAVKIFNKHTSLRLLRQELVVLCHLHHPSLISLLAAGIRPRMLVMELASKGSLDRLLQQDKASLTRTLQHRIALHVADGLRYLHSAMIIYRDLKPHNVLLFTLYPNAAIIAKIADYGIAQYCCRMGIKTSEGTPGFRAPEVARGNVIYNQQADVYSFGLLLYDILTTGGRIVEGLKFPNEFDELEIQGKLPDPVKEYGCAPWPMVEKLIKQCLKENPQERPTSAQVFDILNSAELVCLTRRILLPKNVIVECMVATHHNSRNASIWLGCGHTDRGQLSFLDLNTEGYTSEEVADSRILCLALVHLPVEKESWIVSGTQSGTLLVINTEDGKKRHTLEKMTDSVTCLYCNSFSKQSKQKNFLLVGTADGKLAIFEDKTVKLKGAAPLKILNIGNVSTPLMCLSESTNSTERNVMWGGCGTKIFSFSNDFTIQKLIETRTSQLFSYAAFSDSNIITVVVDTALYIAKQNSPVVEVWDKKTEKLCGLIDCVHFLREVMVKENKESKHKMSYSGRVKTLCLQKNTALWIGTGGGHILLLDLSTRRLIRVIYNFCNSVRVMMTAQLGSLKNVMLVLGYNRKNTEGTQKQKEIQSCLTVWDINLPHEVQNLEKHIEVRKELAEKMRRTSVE

On to `CN(C(=O)CN1CCOCC1)c1ccc2sc3c(-c4cccc5c(=O)cc(N6CC7CCC(C6)O7)oc45)cccc3c2c1` [NU5455], for which the inhibition (usually the drop in the measured response relative to a control, in per cent) at 1 µM amounted to 1.7%.
